“Also recorded” adds a separate entry of the source.
Columns and labels:
Type in all cases: in vivo, human
[1] = system: healthy subjects; test: Clinical cross-over study, overall comparison of the substances; settings: for dose of more equivalent strength to 125 mg (±)-MDMA: based on the results of the present study; for acute subjective effects and adverse effects: conclusion over the doses tested
Experimental: (§1) Study design: The present study compares the acute subjective, physiological and endocrine effects of S-MDMA (125 mg), R-MDMA (125 and 250 mg), MDMA (125 mg) using a placebo-controlled double-blind 5-period cross-over design in 24 healthy subjects. Conditions are 1.) R-MDMA 125 mg, 2). R-MDMA 250 mg, 3) S-MDMA 125 mg, 4) MDMA 125 mg, 5) placebo. Treatment order is counterbalanced. Washout periods between substance administrations are at least 10 days. Study days include a 10-hour study session with a subsequent single measurement (short visit) the next morning (24 hours after drug administration).

[2] = system: healthy subjects; test: Mood after effects day 1-3 (BDI score, SCL-90-R GSI score)
Experimental: as §1
Psychometric assessments: Visual Analog Scale (VAS): VASs is repeatedly used to assess subjective alterations in consciousness over time. Single scales are presented as 100 mm horizontal lines marked with “not at all” on the left and “extremely” on the right. […] Each item of the scale is scored on a 0-100 mm VAS. The attribution of the individual items to the subscales of the 5D-ASC is analyzed according to (Studerus et al., 2010). […]

[3] = system: healthy subjects; test: Adverse effects (List of Complaints); settings: for adverse effects 24 to 72 hours after substance administration: 125 mg, compared with placebo
Experimental: as §1
Adverse effects (list of complaints): The list of complaints (LC) consists of 66 items offering a global score measuring physical and general discomfort (Zerssen, 1976). The LC is administered before (baseline), at the end of the session to cover effects from 0-9 hours and 24 hours after substance administration to cover aftereffects from 9-24 hours. To assess adverse effects after 24 hours, subjects fill out an additional LC 3 days after the test session, covering adverse effects from 24-72 hours. Subjects are additionally be asked to report any adverse events during the sessions or/and between study sessions as assessed at the beginning of the next session and at the EOS visit. Global LC scores are summed up and compared between treatments using analysis of variance.

| Compound | dose of more equivalent strength to 125 mg (±)-MDMA [1] [mg] | acute subjective effects and adverse effects [1] | BDI and GSI scores ([2]; 125 mg, one to three days after substance administration) | adverse effects 24 to 72 hours after substance administration [3] | cardio and psychostimulant effects / properties ([1]; R-MDMA (125 and 250 mg) compared with S-MDMA) | effect on social interaction and connectedness ([1]; within the dose range tested (125 and 250 mg)) | mood after administration ([2]; R-MDMA compared with S-MDMA) | overall adverse effects ([3]; R-MDMA versus (±)-MDMA) |
| --- | --- | --- | --- | --- | --- | --- | --- | --- |
| CN[C@@H](C)Cc1ccc2c(c1)OCO2 [S-MDMA, S(+)-MDMA] | 100 | overall comparable | only increased | only increased; also recorded: increased number of adverse effects | – | – | – | – |
| CN[C@H](C)Cc1ccc2c(c1)OCO2 [R-MDMA, R(−)-MDMA] | 300 | overall comparable | – | only increased; also recorded: increased number of adverse effects | lower cardio and psychostimulant effects; also recorded: less cardiostimulant and psychostimulant properties | less pronounced | did not depress mood after administration | it does not seem that R-MDMA produces overall less adverse effects |

From patent US20240307345A1, “R-MDMA and S-MDMA TO ASSIST PSYCHOTHERAPY” (Universitatsspital Basel, priority 2022, published 2024)
